Assay results: ChEMBL document CHEMBL3885861, “Open TG-GATES”

Organism: Rattus norvegicus
Test: Open TG-GATES - Regimen: Daily Repeat
Assay type: toxicity, organism-based, Sprague-Dawley
Set-up: regimen Daily Repeat, gender Male, age 6 weeks
Conditions: in vivo, po, route gavage; for APTT / Bas / Eos / Fbg / Hb / Ht / Lym / MCH / MCHC / MCV / Mono / Neu / PT / Plat / RBC / Ret / WBC: tissue Blood; for KIDNEY_L / KIDNEY_R / KIDNEY_TOTAL: tissue Kidney; for LIVER: tissue Liver; for A/G / ALP / ALT / AST / BUN / CRE / Ca / Cl / DBIL / GLC / IP / K / LDH / Na / PL / RALB / TBIL / TC / TG / TP / gamma-GTP: tissue Plasma
[1] = 0 mg/kg, 72 h, dose level Control, time 3 day
[2] = 0 mg/kg, […], dose level Control, time 7 day
[3] = 0 mg/kg, […], dose level Control, time 14 day
[4] = 0 mg/kg, […], dose level Control, time 28 day
[5] = 100 mg/kg, 72 h, dose level Low, time 3 day
[6] = 100 mg/kg, […], dose level Low, time 7 day
[7] = 100 mg/kg, […], dose level Low, time 14 day
[8] = 100 mg/kg, […], dose level Low, time 28 day

## O=C(N[C@H](CO)[C@H](O)c1ccc([N+](=O)[O-])cc1)C(Cl)Cl [CHLORAMPHENICOL]
[1]
  TERMINAL_BW: 250.4 g
  APTT: 17.1 s
  Bas: 0%
  Eos: 1.2%
  Fbg: 270.4 mg/dL
  Hb: 13.1 g/dL
  Ht: 40.4%
  Lym: 71.6%
  MCH: 21.5 pg
  MCHC: 32.4%
  MCV: 66.2 fL
  Mono: 3%
  Neu: 23.8%
  PT: 14.4 s
  Plat: 109.8 x10_4/uL
  RBC: 611.2 x10_4/ul
  Ret: 7%
  WBC: 78.3 x10_2/uL
  KIDNEY_L: 1.1 g
  KIDNEY_R: 1.1 g
  KIDNEY_TOTAL: 2.2 g
  LIVER: 12.4 g
  A/G: 0.9
  ALP: 1702 IU/L
  ALT: 44 IU/L
  AST: 66.4 IU/L
  BUN: 15 mg/dL
  CRE: 0.2 mg/dL
  Ca: 11.3 mg/dL
  Cl: 105 meq/L
  DBIL: 0.022 mg/dL
  GLC: 186.8 mg/dL
  IP: 7.1 mg/dL
  K: 4.1 meq/L
  LDH: 80.8 IU/L
  Na: 140.4 meq/L
  PL: 154 mg/dL
  RALB: 2.7 g/dL
  TBIL: 0.048 mg/dL
  TC: 78.4 mg/dL
  TG: 127.6 mg/dL
  TP: 5.7 g/dL
  gamma-GTP: 1.2 IU/L
[2]
  TERMINAL_BW: 289.7 g
  APTT: 17.6 s
  Bas: 0%
  Eos: 0.8%
  Fbg: 274.8 mg/dL
  Hb: 13.7 g/dL
  Ht: 42%
  Lym: 77.8%
  MCH: 21.4 pg
  MCHC: 32.6%
  MCV: 65.7 fL
  Mono: 2.6%
  Neu: 18.2%
  PT: 14.1 s
  Plat: 131.7 x10_4/uL
  RBC: 640.6 x10_4/ul
  Ret: 5.6%
  WBC: 92.1 x10_2/uL
  KIDNEY_L: 1.2 g
  KIDNEY_R: 1.2 g
  KIDNEY_TOTAL: 2.4 g
  LIVER: 13.8 g
  A/G: 0.9
  ALP: 1839.2 IU/L
  ALT: 44.4 IU/L
  AST: 69.4 IU/L
  BUN: 15.4 mg/dL
  CRE: 0.2 mg/dL
  Ca: 11.3 mg/dL
  Cl: 106.4 meq/L
  DBIL: 0.024 mg/dL
  GLC: 188.8 mg/dL
  IP: 7.5 mg/dL
  K: 3.9 meq/L
  LDH: 64.2 IU/L
  Na: 143.2 meq/L
  PL: 162.2 mg/dL
  RALB: 2.7 g/dL
  TBIL: 0.052 mg/dL
  TC: 79 mg/dL
  TG: 140.4 mg/dL
  TP: 5.9 g/dL
  gamma-GTP: 1.2 IU/L
[3]
  TERMINAL_BW: 334.8 g
  APTT: 16.9 s
  Bas: 0%
  Eos: 1%
  Fbg: 272 mg/dL
  Hb: 14.6 g/dL
  Ht: 44.5%
  Lym: 78.4%
  MCH: 20.3 pg
  MCHC: 32.6%
  MCV: 62.3 fL
  Mono: 2.2%
  Neu: 18%
  PT: 14.8 s
  Plat: 122.4 x10_4/uL
  RBC: 715.4 x10_4/ul
  Ret: 3.8%
  WBC: 90.5 x10_2/uL
  KIDNEY_L: 1.3 g
  KIDNEY_R: 1.3 g
  KIDNEY_TOTAL: 2.6 g
  LIVER: 13.9 g
  A/G: 0.8
  ALP: 1466.2 IU/L
  ALT: 37.2 IU/L
  AST: 63.6 IU/L
  BUN: 17.2 mg/dL
  CRE: 0.2 mg/dL
  Ca: 11.1 mg/dL
  Cl: 107.2 meq/L
  DBIL: 0.024 mg/dL
  GLC: 187.6 mg/dL
  IP: 6.5 mg/dL
  K: 4.5 meq/L
  LDH: 59 IU/L
  Na: 143 meq/L
  PL: 151.6 mg/dL
  RALB: 2.7 g/dL
  TBIL: 0.05 mg/dL
  TC: 63.6 mg/dL
  TG: 189.6 mg/dL
  TP: 6 g/dL
  gamma-GTP: 1 IU/L
[4]
  TERMINAL_BW: 425.6 g
  APTT: 18.3 s
  Bas: 0%
  Eos: 1.6%
  Fbg: 259 mg/dL
  Hb: 15.5 g/dL
  Ht: 45.1%
  Lym: 77.4%
  MCH: 20 pg
  MCHC: 34.3%
  MCV: 58.3 fL
  Mono: 1.8%
  Neu: 18.4%
  PT: 14.8 s
  Plat: 93.9 x10_4/uL
  RBC: 773 x10_4/ul
  Ret: 2.2%
  WBC: 79.4 x10_2/uL
  KIDNEY_L: 1.4 g
  KIDNEY_R: 1.4 g
  KIDNEY_TOTAL: 2.8 g
  LIVER: 17 g
  A/G: 0.8
  ALP: 1089.6 IU/L
  ALT: 36.4 IU/L
  AST: 60 IU/L
  BUN: 17 mg/dL
  CRE: 0.2 mg/dL
  Ca: 11 mg/dL
  Cl: 104.4 meq/L
  DBIL: 0.018 mg/dL
  GLC: 193.4 mg/dL
  IP: 6.2 mg/dL
  K: 3.7 meq/L
  LDH: 47.2 IU/L
  Na: 143.8 meq/L
  PL: 141.4 mg/dL
  RALB: 2.7 g/dL
  TBIL: 0.054 mg/dL
  TC: 66 mg/dL
  TG: 136.6 mg/dL
  TP: 6.3 g/dL
  gamma-GTP: 1 IU/L
[5]
  TERMINAL_BW: 251 g
  APTT: 16.1 s
  Bas: 0%
  Eos: 1%
  Fbg: 273.2 mg/dL
  Hb: 13.3 g/dL
  Ht: 40.4%
  Lym: 79.4%
  MCH: 21.8 pg
  MCHC: 32.8%
  MCV: 66.6 fL
  Mono: 3.2%
  Neu: 16.2%
  PT: 14.7 s
  Plat: 116.8 x10_4/uL
  RBC: 607.2 x10_4/ul
  Ret: 5.4%
  WBC: 102.1 x10_2/uL
  KIDNEY_L: 1.1 g
  KIDNEY_R: 1 g
  KIDNEY_TOTAL: 2.1 g
  LIVER: 11.3 g
  A/G: 0.9
  ALP: 1563.4 IU/L
  ALT: 45 IU/L
  AST: 69.4 IU/L
  BUN: 15.6 mg/dL
  CRE: 0.2 mg/dL
  Ca: 11.1 mg/dL
  Cl: 104.6 meq/L
  DBIL: 0.02 mg/dL
  GLC: 178.4 mg/dL
  IP: 6.8 mg/dL
  K: 4.3 meq/L
  LDH: 95.6 IU/L
  Na: 141.2 meq/L
  PL: 146.8 mg/dL
  RALB: 2.5 g/dL
  TBIL: 0.054 mg/dL
  TC: 80 mg/dL
  TG: 97.6 mg/dL
  TP: 5.4 g/dL
  gamma-GTP: 0.8 IU/L
[6]
  TERMINAL_BW: 287.8 g
  APTT: 16.2 s
  Bas: 0%
  Eos: 0.8%
  Fbg: 308.8 mg/dL
  Hb: 14.2 g/dL
  Ht: 44.4%
  Lym: 78.2%
  MCH: 21.1 pg
  MCHC: 32.2%
  MCV: 65.7 fL
  Mono: 3%
  Neu: 17.4%
  PT: 14.4 s
  Plat: 131.5 x10_4/uL
  RBC: 675 x10_4/ul
  Ret: 6%
  WBC: 90.7 x10_2/uL
  KIDNEY_L: 1.2 g
  KIDNEY_R: 1.2 g
  KIDNEY_TOTAL: 2.4 g
  LIVER: 12.9 g
  A/G: 0.8
  ALP: 1500.2 IU/L
  ALT: 49 IU/L
  AST: 71.2 IU/L
  BUN: 13.6 mg/dL
  CRE: 0.2 mg/dL
  Ca: 11.7 mg/dL
  Cl: 106.2 meq/L
  DBIL: 0.026 mg/dL
  GLC: 189.6 mg/dL
  IP: 8.3 mg/dL
  K: 4.2 meq/L
  LDH: 65.8 IU/L
  Na: 144.2 meq/L
  PL: 156.2 mg/dL
  RALB: 2.7 g/dL
  TBIL: 0.062 mg/dL
  TC: 82.6 mg/dL
  TG: 72.4 mg/dL
  TP: 5.9 g/dL
  gamma-GTP: 1.2 IU/L
[7]
  TERMINAL_BW: 333.6 g
  APTT: 14.7 s
  Bas: 0%
  Eos: 1.4%
  Fbg: 297.8 mg/dL
  Hb: 14.1 g/dL
  Ht: 43.4%
  Lym: 78%
  MCH: 20.2 pg
  MCHC: 32.5%
  MCV: 62.1 fL
  Mono: 2.4%
  Neu: 18%
  PT: 14.5 s
  Plat: 121.6 x10_4/uL
  RBC: 698.2 x10_4/ul
  Ret: 3.8%
  WBC: 96.2 x10_2/uL
  KIDNEY_L: 1.3 g
  KIDNEY_R: 1.3 g
  KIDNEY_TOTAL: 2.6 g
  LIVER: 14.9 g
  A/G: 0.8
  ALP: 1535.2 IU/L
  ALT: 41.8 IU/L
  AST: 67.4 IU/L
  BUN: 16 mg/dL
  CRE: 0.2 mg/dL
  Ca: 11.2 mg/dL
  Cl: 105 meq/L
  DBIL: 0.022 mg/dL
  GLC: 191 mg/dL
  IP: 6.5 mg/dL
  K: 3.8 meq/L
  LDH: 54.8 IU/L
  Na: 142.8 meq/L
  PL: 157.4 mg/dL
  RALB: 2.6 g/dL
  TBIL: 0.05 mg/dL
  TC: 77.8 mg/dL
  TG: 133 mg/dL
  TP: 5.8 g/dL
  gamma-GTP: 1 IU/L
[8]
  TERMINAL_BW: 409.6 g
  APTT: 16.5 s
  Bas: 0%
  Eos: 1%
  Fbg: 278 mg/dL
  Hb: 14.9 g/dL
  Ht: 43.7%
  Lym: 81%
  MCH: 19.5 pg
  MCHC: 34.2%
  MCV: 57 fL
  Mono: 1.2%
  Neu: 15.8%
  PT: 14.8 s
  Plat: 106 x10_4/uL
  RBC: 767.4 x10_4/ul
  Ret: 2.3%
  WBC: 79.5 x10_2/uL
  KIDNEY_L: 1.6 g
  KIDNEY_R: 1.5 g
  KIDNEY_TOTAL: 3.1 g
  LIVER: 16.8 g
  A/G: 0.8
  ALP: 1164.4 IU/L
  ALT: 39.2 IU/L
  AST: 61.4 IU/L
  BUN: 16.4 mg/dL
  CRE: 0.2 mg/dL
  Ca: 10.9 mg/dL
  Cl: 104.4 meq/L
  DBIL: 0.02 mg/dL
  GLC: 171.2 mg/dL
  IP: 6.1 mg/dL
  K: 3.5 meq/L
  LDH: 44.6 IU/L
  Na: 144.2 meq/L
  PL: 152.2 mg/dL
  RALB: 2.7 g/dL
  TBIL: 0.058 mg/dL
  TC: 75.2 mg/dL
  TG: 97.6 mg/dL
  TP: 6.2 g/dL
  gamma-GTP: 1 IU/L
